# Assay results from PubChem BioAssay AID1645865 (Buhrlage Lab, Dana-Farber Cancer Institute and Novartis …, 2021).
# pIC50: −log10 of the molar value. Activity calls are given as the source filed them.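 Rule for the calls: active = maximal inhibition of the USP30 enzyme reaching 30% or more across the dose series; inactive = the rest.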
# Target: Ubiquitin carboxyl-terminal hydrolase 30 (Homo sapiens) (UniProt Q70CQ3)
# Test: inhibitors of ubiquitin-specific protease 30 deubiquitylating enzyme, concentration dependence, in vitro biochemical, validation of primary hits (AID 1645865)
# Conditions: purified USP30, Ub-rhodamine cleavage, fluorescence, 2 h
# Ubiquitin carboxyl-terminal hydrolase 30 (Homo sapiens), sequence (Q70CQ3 whole entry, looked up): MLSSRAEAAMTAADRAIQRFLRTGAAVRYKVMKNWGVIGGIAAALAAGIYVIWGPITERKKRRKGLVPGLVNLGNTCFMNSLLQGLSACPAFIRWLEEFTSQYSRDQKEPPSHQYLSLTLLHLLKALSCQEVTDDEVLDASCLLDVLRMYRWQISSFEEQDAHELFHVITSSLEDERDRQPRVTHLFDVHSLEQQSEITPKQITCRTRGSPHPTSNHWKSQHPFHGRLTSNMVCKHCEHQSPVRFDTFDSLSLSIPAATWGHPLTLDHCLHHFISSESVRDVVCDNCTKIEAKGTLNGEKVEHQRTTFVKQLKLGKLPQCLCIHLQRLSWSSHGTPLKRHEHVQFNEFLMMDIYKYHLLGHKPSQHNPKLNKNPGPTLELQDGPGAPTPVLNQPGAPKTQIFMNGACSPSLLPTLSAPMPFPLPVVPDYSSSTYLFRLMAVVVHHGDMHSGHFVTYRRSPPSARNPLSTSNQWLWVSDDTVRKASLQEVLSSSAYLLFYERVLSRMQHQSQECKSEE
IC50,pIC50,Compound
> 50 µM (inactive),–,CC(C)CC[C@H]1O[C@@H](CC(=O)O)Cc2cc3c(c(O)c21)C(=O)c1sc(=O)n(C)c1C3=O
–,6.17,COc1ccc2cc1Oc1cc(ccc1OC)C(O)C13SSC4(C(=O)N1C)C(O)C1=COC=CC(OC2=O)C1N4C3=O (stereo not drawn)
–,5.32,COC1=CC(=O)c2c(O)c3c(c(C)c2C1=O)C[C@@]1(O)[C@H](O[C@H]2CC[C@H](O[C@H]4C[C@@](C)(O)[C@H](OC(=O)c5c(C)ccc(C)c5O)[C@H](C)O4)[C@@H](C)O2)C(=O)C(C(C)=O)=C(O)[C@@]1(O)C3=O
> 50 µM (inactive),–,Cc1noc(NS(=O)(=O)c2ccc(NC(=O)CSc3ccc4ccccc4c3)cc2)c1C
–,4.67,Cc1ccc(-n2cc(C(=O)NCc3cccnc3)nn2)cc1C
> 50 µM (inactive),–,CCN(CC)c1cc(C)c2cc(NC(=O)c3ccncc3)ccc2n1
–,4.71,O=C(CSc1nnc(Cn2cnc3ccccc32)o1)Nc1ccc([N+](=O)[O-])cc1
> 50 µM (inactive),–,CS(=O)(=O)n1nc(NCc2ccc(F)cc2)nc1NCc1ccc(F)cc1
> 50 µM (inactive),–,Cc1ccc(C)c(Nc2cc(C)nc3nc(-c4ccco4)nn23)c1
–,4.68,CCc1ccc(-n2nc(C)c3c2NC(=O)CC3C(=O)c2ccc3c(c2)OCCO3)cc1 (stereo not drawn)
–,4.50,CCn1c(=N)n(CCOc2ccc(F)cc2)c2ccccc21
–,4.59,COc1ccc(CCNC(=O)CCn2c(=O)c3ccccc3n(Cc3ccc(C)cc3)c2=O)cc1OC
–,6.42,CN(Cc1ccccc1)S(=O)(=O)c1ccc2[nH]cc(C(=O)NCc3cccs3)c(=O)c2c1
> 50 µM (inactive),–,O=C(OCc1ccc(Br)cc1)c1ccc2ccccc2n1
–,6.79,COc1cccc2cc(C(=O)Nc3nc(-c4ccncc4)cs3)oc12
–,4.50,COc1cc(OC)cc(-n2c(=O)c3sccc3n(CC(=O)c3ccc(F)cc3)c2=O)c1
–,5.89,CCOc1ccc2cc3c(nc2c1)OC(=O)N(Cc1ccc(C)o1)C3
> 50 µM (inactive),–,COc1ccc(C(=O)Nc2ccc3c(c2)C(=O)N(C)c2ccccc2O3)cc1
–,4.58,O=C(Cn1c(=O)nc(-c2ccccc2)c2ccccc21)NCc1ccc2c(c1)OCO2
> 50 µM (inactive),–,COc1ccccc1C(=O)N1CCc2[nH]c3ccc(F)cc3c2C1

IC50,pIC50,Compound
–,5.50,Cc1ccc(NC(=O)Cc2nnc3c(-c4nc(C5CC5)no4)cccn23)cc1
> 50 µM (inactive),–,Cc1cccc(NC(=O)Cn2c(-c3cnccn3)nc(C)c(C)c2=O)c1C
> 50 µM (inactive),–,O=C1COc2ccccc2N1Cc1noc(-c2ccccc2)n1
> 50 µM (inactive),–,O=C(Cn1c(=O)n(CCCC(=O)N2CC=C(c3ccccc3)CC2)c(=O)c2ccccc21)NCCC1=CCCCC1
> 50 µM (inactive),–,Cc1cc(Cl)ccc1Nc1nc(Nc2cccc(F)c2)nc2nccnc12
> 50 µM (inactive),–,Cc1c(C(=O)Nc2ccc(-c3nnc4n3CCCCC4)cc2)oc2c1ccc1ccccc12
> 50 µM (inactive),–,CC(C)(C)c1ccc(C(=O)Nc2ccc(Cn3cncn3)cc2)cc1
–,5.78,CCOC(=O)N1CCN(S(=O)(=O)c2ccc(C(=O)Nc3ccc(Br)cc3)cc2)CC1
> 50 µM (inactive),–,COc1ccc(C(=O)N2CCCC3(C2)Nc2cccnc2NC3=NC2CCCC2)cn1 (stereo not drawn)
–,4.83,Cc1nc(-c2noc3ccc(C(=O)Nc4cccnc4)cc23)cs1
> 50 µM (inactive),–,COc1cccc(/C=C/C(=O)Nc2ccc(N3CCOCC3)cc2)c1OC
–,4.42,Cc1nc(-c2ccc(C(=O)NCc3ccc(F)cc3)cc2)cs1
–,4.46,COCCCn1c(C(=O)NCCc2ccccc2)cc2c(=O)n3cccc(C)c3nc21
–,4.32,O=c1ncn(Cc2ccc3c(c2)OCO3)cc1-c1ncc(C(F)(F)F)cc1Cl
–,5.72,CCN(CC)C(=O)c1sc(NC(=O)/C=C/c2c(F)cccc2Cl)c(C#N)c1C
–,5.78,CCC(=O)Nc1nc2cc(NC(=O)Nc3cc(C)cc(C)c3)ccc2s1
–,4.56,C=C[C@]1(C)C=C2C(=O)[C@]3(O)OC(=O)[C@@]4(CCCC(C)(C)[C@H]34)[C@@]2(O)CC1
> 50 µM (inactive),–,CC(=O)[C@H]1c2c(c(O)c3c(O)cccc3c2-c2c3c(c(O)c4c(O)cccc24)C(=O)C[C@](C)(O)[C@H]3C(C)=O)C(=O)C[C@]1(C)O
> 50 µM (inactive),–,COc1cc(-c2ccno2)ccc1S(=O)(=O)Nc1ccccc1Cl
–,4.66,CCNc1oc(-c2ccc(S(=O)(=O)N3CCCCC3)cc2)nc1C#N

IC50,pIC50,Compound
> 50 µM (inactive),–,CCOc1ccc(NC(=O)c2nc3c(=O)[nH]c4cc(C)ccc4n3n2)cc1
–,5.64,COc1ccc(C(=O)Nc2n[nH]c(C)c2-c2cccc(C)c2)c(OC)c1
> 50 µM (inactive),–,O=C(OCc1ccc(F)cc1)c1ccc2ccccc2n1
> 50 µM (inactive),–,Cc1ccccc1N1C(=O)/C(=C\c2cccn2C)c2ccccc2C1=O
> 50 µM (inactive),–,O=C(C1CCCN(S(=O)(=O)N2CCCCCC2)C1)N1CCN(c2ccccc2)CC1 (stereo not drawn)
–,4.66,O=C(Cn1c(=O)c2sccc2n(Cc2ccc([N+](=O)[O-])cc2)c1=O)NCCc1ccccc1
–,4.59,COc1ccc(-n2ccn3c(CCC(=O)NCc4ccc(F)cc4)nnc3c2=O)cc1
–,4.32,Cc1oc2ccc(NS(=O)(=O)c3ccc(F)cc3)cc2c1C(=O)OCc1ccccc1
–,4.51,CC1CCCCN1CCCNC(=O)c1ccc(N2CCc3ccccc32)s1 (stereo not drawn)
–,5.58,Cc1ccc2c(c1)c(=O)c(C(=O)c1ccccc1)cn2CC(=O)Nc1ccc2c(c1)OCCO2
–,4.91,O=C(Nc1cccc(Cl)c1)c1ncn2c1CNS(=O)(=O)c1ccccc1-2
> 50 µM (inactive),–,O=C(/C=C/c1c(F)cccc1Cl)N1CCc2ccccc2C1
> 50 µM (inactive),–,O=S(=O)(c1ccccc1)N1CCN2Cc3ccccc3N(Cc3ccccc3)CC2C1 (stereo not drawn)
> 50 µM (inactive),–,COC(=O)CC1CC23OC2(C(=O)c2c(O)cccc2C3=O)C(C)O1 (stereo not drawn)
> 50 µM (inactive),–,CS(=O)(=O)N1CCCc2cc(C(=O)Nc3ccc(Oc4ccccc4)cc3)ccc21
–,4.84,COc1ccc(CNC(=O)CN2C(=O)CC(c3ccccc3)=Nc3ccccc32)cc1
–,4.71,Cc1cccc(NC(=O)CSc2ncnc3c2sc2nc(CC(C)C)c4c(c23)CCC4)c1
–,5.62,O=c1c2ccccc2oc2nc(-c3cccs3)n(-c3ccccc3)c(=O)c12
> 5 µM (inactive),–,COCCn1c(=S)[nH]c2cc(C(=O)NCCSCc3ccccc3)ccc2c1=O

Compound,IC50,pIC50
CC1CC[C@@]2(NC1)O[C@H]1C[C@H]3[C@@H]4CC=C5C[C@@H](O)CC[C@]5(C)[C@H]4CC[C@]3(C)[C@H]1[C@@H]2C (stereo partly drawn),–,4.89
CC1CC[C@]2(NC1)O[C@H]1C[C@H]3[C@@H]4CC[C@H]5C[C@@H](O[C@@H]6O[C@H](CO)[C@H](O[C@@H]7O[C@H](CO)[C@@H](O)[C@H](O[C@@H]8OC[C@@H](O)[C@H](O)[C@H]8O)[C@H]7O[C@@H]7O[C@H](CO)[C@@H](O)[C@H](O)[C@H]7O)[C@H](O)[C@H]6O)CC[C@]5(C)[C@H]4CC[C@]3(C)[C@H]1[C@@H]2C (stereo partly drawn),–,4.40
COc1c(Cl)ccc2c(=O)c3c(O)c4c5c(c3oc12)OCO[C@H]5[C@@H](OC)c1cc2c(c(O)c1-4)C(=O)N(C)[C@H](OC)[C@@H]2O,–,5.31
CO[C@H]1[C@@H](O)[C@H](C)O[C@H](O[C@H]2[C@H](Oc3cccc4c(O)c5c(=O)oc6ccc(C)c7c(=O)oc(c34)c5c67)O[C@H](C)[C@H](O)[C@@H]2O)[C@@H]1O,> 50 µM (inactive),–
